± gives the expanded uncertainty stated by the source.
Columns and labels:
[1] = Crystal; DTA
[2] = Molar enthalpy of transition or fusion; conditions: Crystal; DSC
[3] = molar heat capacity at constant pressure; conditions: 101.33 kPa, Crystal, Small sample (50 mg) DSC

O.O.O.O.O.O.[Cl-].[Cl-].[Mg+2] [magnesium chloride hexahydrate]
Conditions | Molar enthalpy of transition or fusion [kcal/mol] | Normal melting temperature [°C]
[1] | – | 117.5 ± 0.4
[2] | 8.21 ± 0.179 | –

[3]
Conditions | molar heat capacity at constant pressure [J/K/mol]
298.15 K | 336.4 ± 10
299.15 K | 336.1 ± 10
300.15 K | 336.2 ± 10
301.15 K | 336.7 ± 10
302.15 K | 337.2 ± 10
303.15 K | 337.8 ± 10
304.15 K | 338.3 ± 10
305.15 K | 338.8 ± 10
306.15 K | 339.3 ± 10
307.15 K | 339.8 ± 10
308.15 K | 340.3 ± 10
309.15 K | 340.9 ± 10
310.15 K | 341.4 ± 10
311.15 K | 342 ± 10
312.15 K | 342.5 ± 11
313.15 K | 343 ± 11
314.15 K | 343.5 ± 11
315.15 K | 344.1 ± 11
316.15 K | 344.6 ± 11
317.15 K | 345.2 ± 11
318.15 K | 345.7 ± 11
319.15 K | 346.3 ± 12
320.15 K | 346.9 ± 12
321.15 K | 347.4 ± 12
322.15 K | 348 ± 12
323.15 K | 348.5 ± 12
324.15 K | 349.1 ± 13
325.15 K | 349.6 ± 13
326.15 K | 350.1 ± 13
327.15 K | 350.7 ± 13
328.15 K | 351.3 ± 14
329.15 K | 351.8 ± 14
330.15 K | 352.4 ± 14
331.15 K | 353 ± 15
332.15 K | 353.6 ± 15
333.15 K | 354.2 ± 15
334.15 K | 354.8 ± 16
335.15 K | 355.4 ± 16
336.15 K | 355.9 ± 16
337.15 K | 356.5 ± 17
338.15 K | 357.1 ± 17
339.15 K | 357.8 ± 17
340.15 K | 358.4 ± 17
341.15 K | 359.1 ± 18
342.15 K | 359.7 ± 18
343.15 K | 360.3 ± 18
344.15 K | 360.9 ± 19
345.15 K | 361.5 ± 19
346.15 K | 362.2 ± 19
347.15 K | 362.9 ± 20
348.15 K | 363.6 ± 20
349.15 K | 364.3 ± 21
350.15 K | 365 ± 21
351.15 K | 365.6 ± 21
352.15 K | 366.3 ± 22
353.15 K | 367 ± 22
354.15 K | 367.8 ± 23
355.15 K | 368.6 ± 23
356.15 K | 369.3 ± 24
357.15 K | 370.1 ± 24
358.15 K | 370.8 ± 25
359.15 K | 371.7 ± 25
360.15 K | 372.4 ± 25
361.15 K | 373.3 ± 26
362.15 K | 374.2 ± 27
363.15 K | 375.1 ± 27
364.15 K | 376 ± 27
365.15 K | 377 ± 28
366.15 K | 377.9 ± 28
367.15 K | 379 ± 29
368.15 K | 380 ± 30
369.15 K | 381.1 ± 30
370.15 K | 382.1 ± 31
371.15 K | 383.3 ± 32
372.15 K | 384.4 ± 32
373.15 K | 385.6 ± 33
374.15 K | 386.8 ± 34
375.15 K | 388.1 ± 35
376.15 K | 389.3 ± 36
377.15 K | 390.6 ± 37
378.15 K | 392 ± 38
379.15 K | 393.4 ± 39
380.15 K | 394.9 ± 40
381.15 K | 396.4 ± 41
382.15 K | 397.8 ± 42
383.15 K | 399.4 ± 44
384.15 K | 401.3 ± 46
385.15 K | 403.3 ± 48
386.15 K | 405.5 ± 50
387.15 K | 409.7 ± 54
388.15 K | 418.7 ± 59
389.15 K | 451.6 ± 77

Reference: the NIST ThermoML archive (doi:10.1016/j.tca.2012.07.021)
